# Reference: the NIST ThermoML archive (doi:10.1021/je400238j)
# ± gives the expanded uncertainty stated by the source.
# Conditions: Liquid, Ebulliometric method (Recirculating still)
vapor or sublimation pressure (323.46 K),vapor or sublimation pressure (338.72 K),vapor or sublimation pressure (348.56 K),vapor or sublimation pressure (351.51 K),vapor or sublimation pressure (359.76 K),vapor or sublimation pressure (360.06 K),vapor or sublimation pressure (380.43 K),vapor or sublimation pressure (380.94 K),vapor or sublimation pressure (394.09 K),vapor or sublimation pressure (394.6 K),vapor or sublimation pressure (398.49 K),vapor or sublimation pressure (398.74 K),Compound
30 ± 1.3 kPa,60 ± 1.5 kPa,90 ± 1.8 kPa,101.3 ± 2 kPa,–,–,–,–,–,–,–,–,CCO [ethanol]
–,–,–,–,30 ± 1.3 kPa,30 ± 2.5 kPa,60 ± 1.5 kPa,60 ± 4.7 kPa,90 ± 1.9 kPa,90 ± 7 kPa,101.3 ± 2 kPa,101.3 ± 7.9 kPa,CCCCCCCC [octane]
